For one experiment, the target named is T1, BRD4 BD2 (Homo sapiens, UniProt O60885).
T1 construct: BD2 TE; expressed in transfected cells
The experiment in a line: Target Engagement Intracellular BET BRD Assay (NanoBRET). The experiment is classed as cell-based. The settings on record: read-out: BRD4 BD2 TE IC50. The procedure:
3× Complete Substrate plus Inhibitor Solution in Assay Medium (Opti-MEM® I Reduced Serum Medium, no phenol red, and no serum) was prepared just before measuring BRET. This solution consisted of a 1:166 dilution of NanoBRET™ Nano-Glo® Substrate plus a 1:500 dilution of Extracellular NanoLuc® Inhibitor in Assay Medium. For a 96-well plate, 30 μl of NanoBRET™ Nano-Glo® Substrate, 10 μl of Extracellular NanoLuc® Inhibitor and 4,960 μl of Assay Medium were mixed to produce 5 ml of 3× Complete Substrate plus Inhibitor Solution, followed with gently mixing by inversion 5-10 times in a conical tube. (The final concentration of Extracellular NanoLuc® Inhibitor in the 3× solution was 60 μM, for a working concentration of 20 μM. Use 3× Complete Substrate plus Inhibitor Solution within 2 hours. Discard any remaining solution).
50 μl of 3× Complete Substrate plus Inhibitor Solution were added to each well of the 96-well plate, followed by incubation for 2-3 minutes at room temperature. Donor emission wavelength (e.g., 450 nm) and acceptor emission wavelength (e.g., 610 nm) were measured by using the GloMax® Discover System or other NanoBRET™ Assay-compatible luminometer (it is recommended measuring BRET within 10 minutes after adding NanoBRET™ Nano-Glo™ Substrate plus Extracellular NanoLuc® Inhibitor Solution. However, BRET can be measured for up to 2 hours, but there will be some loss of luminescence signal).
To generate raw BRET ratio values, the acceptor emission value (e.g., 610 nm) was divided by the donor emission value (e.g., 450 nm) for each sample [to correct for background, the BRET ratio was substracted in the absence of tracer (average of no-tracer control samples) from the BRET ratio of each sample]. Raw BRET units were converted to milliBRET units (mBU) by multiplying each raw BRET value by 1,000. NanoBRET™ ratio equation, including optional background correction is shown below:
BRET Ratio=[(Acceptorsample÷Donorsample)−(Acceptorno-tracer control÷Donorno-tracer control)]×1,000.
(BRET reads energy transfer from a luciferase to a nearby fluorophore.)

Another experiment has as its system MCP-1. The experiment can be described thus: PBMC MCP-1 HTRF Assay. Format: cell-based. The settings on record: LPS 200 ng/mL, 24 hours. On the procedure: The cryopreserved PBMC cells were thawed in a 37° C. water bath immediately after taking out from liquid nitrogen storage. A sterile pipette was used to transfer the content to sterile […] centrifuge tube containing […] of complete growth medium (Gibico 1640) and centrifuge at 300×g for 10 min. Supernatant was discarded, and cell pellet was resuspended in 10 mL of complete growth media in a sterile 15 mL tube. The cells were rested for 1 h at 37° C. (1×10^6 cells/mL). The cells were spinned down at 300×g for 10 minutes after 1 h. Supernatant was discard, and cell pellet was resuspended in complete growth medium, the cells number and viability were measured by AO/PI staining. In a 384-well white plate, PBMCs at 25 k cells/well (15 μl per well) were seeded with Gibico 1640 medium. The compound stock was serial diluted into […] by 3-fold dilution. 20 nL DMSO, 20 nL test compounds DMSO stock (serial diluted) were transferred in assay plate by using ECHO550, incubate for 30 min at 37° C., 5% CO2. LPS was diluted by Gibico 1640 medium.add 5 μl per well. The final concentration (200 ng/mL) was incubated for 24 hours at 37° C. with 5% CO2.
For MCP-1 HTRF, 2.5 μl/well MCP-1 donor antibody and 2.5 μl/well MCP-1 acceptor antibody were added into 384 well plate, following by centrifuging at 190×g for 1 min and incubating at room temperature for 2 h. The plate was read on the Envision.
A general note: In TR-FRET formats the signal depends on donor and acceptor labels being close together.

Consider `Cc1cc(-c2ccc(-n3ccn(C)c3=O)c(Cl)c2)c(O)c(-c2cc(F)cc(N3CCN(C(C)(C)C)CC3)c2)n1` [Example I-12, 1-(4-(2-(3-(4-(tert-butyl)piperazin-1-yl)-5-fluorophenyl)-3-hydroxy-6-methylpyridin-4-yl)-2-chlorophenyl)-3-methyl-1,3-dihydro-2H-imidazol-2-one], for which the results for the half-maximal inhibitory concentration (IC50) at BRD4 BD2 and with MCP-1 were 4.31 nM and 4.72 nM, respectively.
The corresponding values for `Cc1cc(-c2ccc(-n3ccn(C)c3=O)c(Cl)c2)c(O)c(-c2ccc(Cl)c(N3CCN(C(C)(C)C)CC3)c2)n1` [Example I-11, 1-(4-(2-(3-(4-(tert-butyl)piperazin-1-yl)-4-chlorophenyl)-3-hydroxy-6-methylpyridin-4-yl)-2-chlorophenyl)-3-methyl-1,3-dihydro-2H-imidazol-2-one] are 4.22 nM and 6.34 nM.
Taken in the same sequence, the figures for `Cc1cc(-c2ccc(-n3ccn(C)c3=O)c(Cl)c2)c(N)c(-c2cccc(N3CCN(C(C)(C)C)CC3)c2)n1` [Example I-5, 1-(4-(3-amino-2-(3-(4-(tert-butyl)piperazin-1-yl)phenyl)-6-methylpyridin-4-yl)-2-chlorophenyl)-3-methyl-1,3-dihydro-2H-imidazol-2-one] were 0.473 nM and 0.583 nM.
In the case of `[2H]C([2H])([2H])n1ccn(-c2ccc(-c3cc(C)nc(-c4cccc(N5CCN(C(C)(C)C)CC5)c4)c3O)cc2Cl)c1=O` [Example I-4, 1-(4-(2-(3-(4-(tert-butyl)piperazin-1-yl)phenyl)-3-hydroxy-6-methylpyridin-4-yl)-2-chlorophenyl)-3-(methyl-d3)-1,3-dihydro-2H-imidazol-2-one], the 50% inhibitory concentration (IC50) (as a rule, the point on the concentration scale where inhibition reaches its midpoint) worked out at 10.2 nM at BRD4 BD2 and 1.72 nM in the experiment with MCP-1.
For `Cc1cc(-c2ccc(-n3ccn(C)c3=O)c(C)c2)c(O)c(-c2cccc(N3CCN(C(C)(C)C)CC3)c2)n1` [Example I-10, 1-(4-(2-(3-(4-(tert-butyl)piperazin-1-yl)phenyl)-3-hydroxy-6-methylpyridin-4-yl)-2-methylphenyl)-3-methyl-1,3-dihydro-2H-imidazol-2-one], the results for the 50% inhibitory concentration (IC50) on BRD4 BD2 and in the experiment on MCP-1 were 7.59 nM and 1.46 nM, respectively.
`Cn1ccn(-c2ccc(-c3cc(F)nc(-c4cccc(N5CCN(C(C)(C)C)CC5)c4)c3O)cc2Cl)c1=O` [Example I-13, 1-(4-(2-(3-(4-(tert-butyl)piperazin-1-yl)phenyl)-6-fluoro-3-hydroxypyridin-4-yl)-2-chlorophenyl)-3-methyl-1,3-dihydro-2H-imidazol-2-one]: the results for the 50% inhibitory concentration (IC50) at BRD4 BD2 and in the experiment with MCP-1 were 83.6 nM and 16.7 nM, respectively.
As for `Cn1ccn(-c2ccc(-c3ccnc(-c4cccc(N5CCN(C(C)(C)C)CC5)c4)c3O)cc2Cl)c1=O` [Example I-14, 1-(4-(2-(3-(4-(tert-butyl)piperazin-1-yl)phenyl)-3-hydroxypyridin-4-yl)-2-chlorophenyl)-3-methyl-1,3-dihydro-2H-imidazol-2-one], the figures for the IC50 on BRD4 BD2 and in the experiment with MCP-1 were 68.5 nM and 21.1 nM, respectively.
The corresponding values for `Cc1cc(-c2ccc(-n3ccn(C)c3=O)c(Cl)c2)c(O)c(-c2cccc(N3CCN(C(C)(C)C)CC3)c2)n1` [Example I-2, 1-(4-(2-(3-(4-(tert-butyl)piperazin-1-yl)phenyl)-3-hydroxy-6-methylpyridin-4-yl)-2-chlorophenyl)-3-methyl-1,3-dihydro-2H-imidazol-2-one] are 0.152 nM and 1.22 nM.
The corresponding values for `Cc1cc(-c2ccc(-n3ccn(C)c3=O)c(Cl)c2)c(O)c(-c2cc(N3CCN(C(C)(C)C)CC3)n(C)c(=O)c2)n1` [Example I-9, 6′-(4-(tert-butyl)piperazin-1-yl)-4-(3-chloro-4-(3-methyl-2-oxo-2,3-dihydro-1H-imidazol-1-yl)phenyl)-3-hydroxy-1′,6-dimethyl-[2,4′-bipyridin]-2′(1′H)-one] are 87.2 nM and 66.3 nM.
Taken in the same sequence, the figures for `Cc1cc(-c2ccc(-n3ccn(C)c3=O)c(Cl)c2)c(O)c(-c2cc(Cl)cc(N3CCN(C(C)(C)C)CC3)c2)n1` [Example I-6, 1-(4-(2-(3-(4-(tert-butyl)piperazin-1-yl)-5-chlorophenyl)-3-hydroxy-6-methylpyridin-4-yl)-2-chlorophenyl)-3-methyl-1,3-dihydro-2H-imidazol-2-one] were 9.11 nM and 2.25 nM.
As for `COc1ncc(-c2nc(C)cc(-c3ccc(-n4ccn(C)c4=O)c(Cl)c3)c2O)cc1N1CCN(C(C)(C)C)CC1` [Example I-3, 1-(4-(5′-(4-(tert-butyl)piperazin-1-yl)-3-hydroxy-6′-methoxy-6-methyl-[2,3′-bipyridin]-4-yl)-2-chlorophenyl)-3-methyl-1,3-dihydro-2H-imidazol-2-one], the IC50 on BRD4 BD2 is 4.5 nM; in the experiment with MCP-1, 4.4 nM.
The corresponding values for `Cc1cc(-c2ccc(-n3ccn(C)c3=O)c(Cl)c2)c(O)c(-c2ccc(F)c(N3CCN(C(C)(C)C)CC3)c2)n1` [Example I-7, 1-(4-(2-(3-(4-(tert-butyl)piperazin-1-yl)-4-fluorophenyl)-3-hydroxy-6-methylpyridin-4-yl)-2-chlorophenyl)-3-methyl-1,3-dihydro-2H-imidazol-2-one] are 11 nM and 1.79 nM.
Taken in the same sequence, the figures for `Cc1cc(-c2ccc(-n3ccn(C)c3=O)c(F)c2)c(O)c(-c2cccc(N3CCN(C(C)(C)C)CC3)c2)n1` [Example I-8, 1-(4-(2-(3-(4-(tert-butyl)piperazin-1-yl)phenyl)-3-hydroxy-6-methylpyridin-4-yl)-2-fluorophenyl)-3-methyl-1,3-dihydro-2H-imidazol-2-one] were 13 nM and 5.39 nM.
Taken in the same sequence, the figures for `COc1ncc(-c2cc(F)cc(-c3ccc(-n4ccn(C)c4=O)c(Cl)c3)c2O)cc1N1CCN(C(C)(C)C)CC1` [Example I-15, 1-(3′-(5-(4-(tert-butyl)piperazin-1-yl)-6-methoxypyridin-3-yl)-3-chloro-5′-fluoro-2′-hydroxy-[1,1′-biphenyl]-4-yl)-3-methyl-1,3-dihydro-2H-imidazol-2-one] were 0.152 nM and 1.09 nM.
